The nature of the data set: in vitro. Particulars: human, hela cells, % viability.

Regarding `O=C(O)c1cccc2c1C(=O)N(Cc1ccncc1)C2` [CBK291146], the viability (in general, a read-out of living cells in per cent, often relative to untreated cells) at 28.5 h, 10 µM is 80.6%.

Take `COc1ccc(CCC(=O)N2CCCCC2c2ncc(-c3cccc(F)c3)[nH]2)cc1OC` (stereo not shown) [CBK291148]: the viability at 28.5 h, 10 µM was 90.3%.

As for `Cc1nn(C)c(C)c1CCC(=O)N1CCCCC1c1ncc(-c2cccc(F)c2)[nH]1` (stereo not shown) [CBK291150], the viability at 28.5 h, 10 µM came to 89.9%.

On to `Cc1cc(NC(=O)CC2CCCCC2)nc2c1c(=O)oc1ccccc12` [CBK291151], for which the viability at 28.5 h, 10 µM was determined as 90.6%.

Turning to `Cc1ccc(CC(=O)N2CCCCC2c2ncc(-c3cccc(F)c3)[nH]2)cn1` (stereo not shown) [CBK291152], the viability at 28.5 h, 10 µM worked out at 98%.

For `O=C1CC(c2ccccc2)CC(=O)N1c1nnn[nH]1` [CBK291154], the viability at 28.5 h, 10 µM is 85.5%.

Turning to `O=C1CC(=O)N(Cc2ccc(F)cc2)C(=O)N1` [CBK291156], the viability at 28.5 h, 10 µM is 95.2%.

Regarding `Cc1cc(O)cc(=O)n1Cc1ccccn1` [CBK291159], the viability at 28.5 h, 10 µM was 91.8%.

Take `O=c1c(Cc2ccc(Cl)cc2)c(O)ccn1Cc1ccncc1` [CBK291161]: the viability at 28.5 h, 10 µM is 98.7%.

Turning to `O=c1cc(O)c2ccccc2n1Cc1ccccc1F` [CBK291162], the viability at 28.5 h, 10 µM turned out to be 86.3%.

In the case of `O=c1cc(O)c2cc([N+](=O)[O-])ccc2n1CCc1ccccc1` [CBK291165], the viability at 28.5 h, 10 µM is 90.8%.

In the case of `Cc1cc2ncc3c(n2n1)NC(c1ccc(Cl)cc1Cl)NC3=O` (stereo not shown) [CBK291167], the viability at 28.5 h, 10 µM is 90.8%.

Regarding `O=C(O)c1ccc(N2C(=O)CC(c3ccccc3)CC2=O)cc1` [CBK291169], the viability at 28.5 h, 10 µM is 87.3%.

Consider `CC(C)CSc1nc(O)cc(=O)n1Cc1ccccc1` [CBK291170], for which the viability at 28.5 h, 10 µM was determined as 114%.

On to `COc1ccc(NC(=O)CSc2nc(C)c(Cc3ccc(O)cc3)[nH]2)cc1` [CBK291171], for which the viability at 28.5 h, 10 µM was 95.4%.

Regarding `O=C(NCc1ccccc1)c1c(O)c2ccccc2n(Cc2ccccc2)c1=O` [CBK291174], the viability at 28.5 h, 10 µM stood at 91.6%.

Consider `CCCn1c(=O)c(Cc2ccccc2)c(O)c2ccccc21` [CBK291175], for which the viability at 28.5 h, 10 µM was determined as 89.3%.

In the case of `COc1ccc(Cc2nc(-c3ccccc3)c3ccccc3n2)cc1F` [CBK291176], the viability at 28.5 h, 10 µM turned out to be 80.2%.

In the case of `COc1ccc(Oc2cc3n(c(=O)n2)CCc2cc(OC)c(OC)cc2-3)cc1` [CBK291177], the viability at 28.5 h, 10 µM came to 86.1%.

For `CCc1c(C(=O)Nc2ccc3nc(C)cn3c2)cnc2cc(O)nn12` [CBK291178], the viability at 28.5 h, 10 µM was 92.7%.

On to `CC(C)Oc1ccc(C2CC(=O)N(c3cccc(C(=O)O)c3)C2=O)cc1` (stereo not shown) [CBK291181], for which the viability at 28.5 h, 10 µM came out at 89.8%.

Turning to `CCOC(CCNC(=O)c1cnc(Nc2ccccc2OC)c2ccccc12)OCC` [CBK291184], the viability at 28.5 h, 10 µM turned out to be 68.3%.

`Oc1ccc(Cn2c(-c3ccc(O)cc3)nc3ccccc32)cc1` [CBK291187]: the viability at 28.5 h, 10 µM came to 90.3%.

As to `CCCCCn1c(=O)c(C(=O)Nc2cccc(O)c2)c(O)c2ccccc21` [CBK291189], the viability at 28.5 h, 10 µM was 111%.

As to `O=C1CC(c2ccccc2)CC(=O)N1c1ccc(N2CCOCC2)cc1` [CBK291191], the viability at 28.5 h, 10 µM amounted to 108%.

Regarding `NS(=O)(=O)c1ccc2nc(NC(=O)c3ccc(N4C(=O)CCC4=O)cc3)sc2c1` [CBK291192], the viability at 28.5 h, 10 µM stood at 117%.

Regarding `O=C(O)c1cccc2c1C(=O)N(Cc1cccnc1)C2` [CBK291193], the viability at 28.5 h, 10 µM was found to be 119%.

Take `Nc1nc(=O)c2cnc3ccc(F)cc3c2s1` [CBK291195]: the viability at 28.5 h, 10 µM worked out at 111%.

Consider `CCCc1nc(SC)ncc1C(=O)Nc1nnc(SCC)s1` [CBK291198], for which the viability at 28.5 h, 10 µM was determined as 108%.

`Cc1cc(NC(=O)c2ccc(C(C)(C)C)cc2)nc2c1c(=O)oc1ccccc12` [CBK291200]: the viability at 28.5 h, 10 µM amounted to 120%.

Consider `Cc1cc(NC(=O)CCCc2ccccc2)nc2c1c(=O)oc1ccccc12` [CBK291204], for which the viability at 28.5 h, 10 µM worked out at 109%.

Regarding `O=C(Nc1ccc(Br)cc1)c1c(O)n2c3c(cccc3c1=O)CCC2` [CBK291207], the viability at 28.5 h, 10 µM worked out at 103%.

As to `Cn1c(=O)[nH]c(=O)c2cnc(-c3ccc(Cl)cc3)nc21` [CBK291208], the viability at 28.5 h, 10 µM was 95.6%.

Turning to `CCOCCCNC(=O)c1ccc(-c2cc(Oc3ccc(OC)cc3)ncn2)cc1` [CBK291209], the viability at 28.5 h, 10 µM worked out at 100%.

As for `COc1ccc(C(=O)Nc2nc3c(C)c(C)ccc3s2)cc1` [CBK291210], the viability at 28.5 h, 10 µM amounted to 107%.

Turning to `COc1ccc(Sc2nc(SC)nc(-c3ccccc3)c2C#N)cc1` [CBK291212], the viability at 28.5 h, 10 µM turned out to be 94%.

With `O=C(Nc1ccccn1)c1c(O)n(Cc2ccccc2)c2ccccc2c1=O` [CBK291213], the viability at 28.5 h, 10 µM turned out to be 90.3%.

With `COC(=O)c1cccc2c1ncc1c(=O)nc(N)sc12` [CBK291214], the viability at 28.5 h, 10 µM is 101%.

In the case of `O=C(c1cc(-c2ccccc2)n[nH]c1=O)N1CCc2ccccc2C1` [CBK291216], the viability at 28.5 h, 10 µM was found to be 91.2%.

On to `CCOC(=O)c1ccc2ncc3c(=O)nc(N)sc3c2c1` [CBK291218], for which the viability at 28.5 h, 10 µM was 83.7%.

Regarding `Cn1c(=O)c2cnc(-c3ccccc3Cl)nc2n(C)c1=O` [CBK291219], the viability at 28.5 h, 10 µM came out at 85.7%.

With `O=c1[nH]c(-c2cc(Cc3ccccc3Cl)ccc2O)nc2ccccc12` [CBK291220], the viability at 28.5 h, 10 µM was 98.3%.

With `O=C(Nc1ccncc1)c1c(O)n(Cc2ccccc2)c2ccccc2c1=O` [CBK291222], the viability at 28.5 h, 10 µM came out at 92%.

`CSc1ncc(C(=O)NC2CCCC2)c(NC2CCCC2)n1` [CBK291223]: the viability at 28.5 h, 10 µM amounted to 91.3%.

Turning to `COc1ccc(Oc2ncnc3c2oc2ccccc23)cc1` [CBK291224], the viability at 28.5 h, 10 µM is 86.4%.

In the case of `Cc1ccc2c(c1)nc(-c1ccc(O)cc1)n2Cc1ccc(O)cc1` [CBK291226], the viability at 28.5 h, 10 µM is 77.4%.

In the case of `Nc1nc(=O)c2cnc3c(Cl)cccc3c2s1` [CBK291229], the viability at 28.5 h, 10 µM worked out at 89.5%.

Regarding `Cc1cc(NC(=O)CN2CCN(c3ccc(F)cc3)CC2)nc2c1c(=O)oc1ccccc12` [CBK291232], the viability at 28.5 h, 10 µM was found to be 88.8%.

Turning to `CCCCCn1c(=O)c(Cc2ccccc2)c(O)c2ccccc21` [CBK291233], the viability at 28.5 h, 10 µM was 93.2%.

As for `COc1ccc(Nc2ncnc3c2oc2ccccc23)cc1` [CBK291236], the viability at 28.5 h, 10 µM is 86.5%.

Take `Nc1nc(=O)c2cnc3ccc(C(=O)O)cc3c2s1` [CBK291239]: the viability at 28.5 h, 10 µM is 96.7%.

Take `COc1cccc2c1ncc1c(=O)nc(N)sc12` [CBK291241]: the viability at 28.5 h, 10 µM amounted to 88.9%.

For the molecule `O=C(Cn1c(=O)cc(O)c2ccccc21)Nc1cccc(F)c1` [CBK291242], the viability at 28.5 h, 10 µM amounted to 98.1%.

For the molecule `Cn1c(=O)c2c(O)cc(=O)n(Cc3ccccc3)c2n(C)c1=O` [CBK291245], the viability at 28.5 h, 10 µM came to 81.5%.

In the case of `Cc1cc(NC(=O)c2cc(Cl)ccc2[N+](=O)[O-])nc2c1c(=O)oc1ccccc12` [CBK291248], the viability at 28.5 h, 10 µM amounted to 85.9%.

For the molecule `Nc1nc(=O)c2cnc3c(F)cccc3c2s1` [CBK291249], the viability at 28.5 h, 10 µM was found to be 91.1%.

For `CCSc1nnc(NC(=O)c2cnc(SC)nc2CC)s1` [CBK291250], the viability at 28.5 h, 10 µM came out at 101%.

For `Nc1nc2c(s1)c(O)nc(=O)n2Cc1ccccc1` [CBK291257], the viability at 28.5 h, 10 µM is 88.6%.

On to `Cc1cc(NC(=O)c2cc([N+](=O)[O-])ccc2Cl)nc2c1c(=O)oc1ccccc12` [CBK291258], for which the viability at 28.5 h, 10 µM amounted to 90.8%.

Consider `CCn1c(=O)[nH]c(=O)c2cnc(-c3ccc(OC)cc3)nc21` [CBK291259], for which the viability at 28.5 h, 10 µM is 107%.

In the case of `O=c1[nH]c(=O)n(Cc2cccnc2)c2nc[nH]c12` [CBK291260], the viability at 28.5 h, 10 µM was found to be 111%.

With `Cc1cc(NC(=O)c2ccc(Br)cc2)nc2c1c(=O)oc1ccccc12` [CBK291262], the viability at 28.5 h, 10 µM came out at 102%.

`O=C1COc2ccccc2C/C=C/CC2(CCN(C(=O)c3cncc(O)c3)CC2)C(=O)NCCN1` [CBK291989]: the viability at 28.5 h, 10 µM stood at 98.3%.

For the molecule `CC(=O)NCC(=O)N1CCCC2(C/C=C/COc3ccccc3C(=O)NCCNC2=O)C1` (stereo not shown) [CBK291991], the viability at 28.5 h, 10 µM came to 87.1%.

With `O=C1COc2ccccc2CCCCC2(CCCN(C(=O)CN3CCCC3=O)C2)CN1` (stereo not shown) [CBK291992], the viability at 28.5 h, 10 µM came out at 105%.

As for `O=C1COc2ccccc2CCCCC2(CCCN(C(=O)CCN3CCCC3=O)C2)CN1` (stereo not shown) [CBK291998], the viability at 28.5 h, 10 µM came to 103%.

As for `CCC(=O)N1CC[C@H]2NC(=O)c3ccccc3OCC/C=C/C[C@H]2C1` [CBK291999], the viability at 28.5 h, 10 µM stood at 91.3%.

Regarding `COC(C)(C)C(=O)N1CCC2(C/C=C/Cc3ccccc3OCC(=O)NCCNC2=O)CC1` [CBK292001], the viability at 28.5 h, 10 µM was determined as 105%.

Regarding `O=C1COc2ccccc2C/C=C/CC2(CCN(C(=O)Cn3cccn3)CC2)C(=O)NCCN1` [CBK292003], the viability at 28.5 h, 10 µM came out at 117%.

Consider `CC(=O)NCC(=O)N1CCC2(C/C=C/CNC(=O)c3ccccc3OCCNC2=O)CC1` [CBK292006], for which the viability at 28.5 h, 10 µM stood at 97.4%.

With `O=C1NC/C=C/CC2(CCN(Cc3ccc(Cl)cn3)CC2)C(=O)NCCOc2ccccc21` [CBK292008], the viability at 28.5 h, 10 µM is 103%.

As to `CC(=O)N1CC[C@H]2NC(=O)CNC(=O)C3(CCCC[C@H]2C1)CCN(C(=O)c1n[nH]c2c1CCC2)CC3` [CBK292012], the viability at 28.5 h, 10 µM came out at 102%.

Regarding `CC(=O)NCC(=O)N1CC[C@@H]2NC(=O)CNC(=O)C3(CCCC[C@H]2C1)CCN(C(C)=O)CC3` [CBK292014], the viability at 28.5 h, 10 µM worked out at 91.8%.

For the molecule `O=C1NCC2(C/C=C/CCOc3ccccc31)CCN(C(=O)Cc1cccc(F)c1)CC2` [CBK292015], the viability at 28.5 h, 10 µM is 81%.

Turning to `O=C1NCC2(C/C=C/CCOc3ccccc31)CCN(C(=O)CCc1ccccc1)CC2` [CBK292017], the viability at 28.5 h, 10 µM came out at 71.2%.

Consider `O=C1NCC2(C/C=C/CCOc3ccccc31)CCN(C(=O)c1ccncc1)CC2` [CBK292018], for which the viability at 28.5 h, 10 µM stood at 105%.

As to `O=C1COc2ccccc2C/C=C/CC2(CCN(C(=O)c3n[nH]c4c3CCC4)CC2)CN1` [CBK292019], the viability at 28.5 h, 10 µM came out at 111%.

With `O=C1COc2ccccc2C/C=C/CC2(CCN(C(=O)c3n[nH]c4ccccc34)CC2)CN1` [CBK292021], the viability at 28.5 h, 10 µM turned out to be 88.9%.

`O=C1NCCNC(=O)C2(C/C=C/COc3ccccc31)CCN(C(=O)c1cncs1)CC2` [CBK292023]: the viability at 28.5 h, 10 µM was found to be 95.3%.

For the origin of these results see publication PMC12040169 (PLOS Biology, 2025).
